Patent US6576268B2, “Biologically active fraction of vegetable melanin, process for its production and its use” (priority 1998, dated 2003)

Experiment: SOD-like activity and IC50, chemiluminometric method (PHOTOCHEM, set FAT Berlin)
Format: biochemical
Settings: fytomelanin with 10^19 spin/g
Experimental: To determine the SOD-like activity a chemiluminometric method using the chemiluminometer PHOTOCHEM was used, where the set FAT, Berlin for the SOD activity was used for the determination. The measurements were performed with the measuring time of 3 minutes, and the area integral of the chemiluminiscent curve was recorded. The value was recalculated to the unit SOD activity (by weight), and it represents 0.2 of the SOD activity.

-log IC50: 8.064
Substance: SOD: superoxide dismutase, molecular weight 32000, reference enzyme
% SOD activity (relative to SOD = 100): 100.00%
